From paper PMC7352759, “S(+)-(2E)-N-(2-Hydroxypropyl)-3-Phenylprop-2-Enamide (KM-568): A Novel Cinnamamide Derivative with Anticonvulsant Activity in Animal Models of Seizures and Epilepsy” (International Journal of Molecular Sciences, 2020)

Columns and labels:
[1] = test system: corneal kindled mice; test: Corneal kindled seizure model in mice; type: in vivo; details: for Average Seizure Score / Results (protected/tested animals): corneal kindled mice, i.p.
Method: Mice were stimulated via corneal electrodes (3 mA, 60 Hz, 3 sec) for an average of 12 days, 4 h apart. Prior to each stimulation, a drop of 0.5% tetracaine hydrochloride in saline was applied to the cornea. After development of five consecutive seizure stages at level 5 according to the Racine scale, animals were considered kindled. The groups of 8 mice received an intraperitoneal injection of appropriate doses of KM-568. […] Mice were scored as protected if the seizure score was less than or equal to three and not protected if the seizure score was more than three, based on the Racine scoring system.

[2] = test system: mice; test: Subcutaneous metrazol seizure threshold test (scMET), mice; type: in vivo; details: for ED50: Mus musculus, 95% confidence interval in parentheses
Method: (§1) In vivo activity testing was performed at the Epilepsy Branch, National Institute of Neurological Disorders and Stroke, National Institutes of Health (NIH, Bethesda, USA) within the Anticonvulsant Screening Program (ASP) (currently known as the Epilepsy Therapy Screening Program (ETSP)). Pharmacological evaluation was planned and performed in accordance with the Institute of Laboratory Resources polices on the humane care of laboratory animals and approved by the University of Utah’s Institutional Animal Care and Use Committee (IACUC). All testing protocols were previously published as well as they are available on the NIH website. In the tests, albino mice Carworth Farms No.1 (CF-1) (Charles River), C57/Bl6 mice (Charles River), Frings mice (University of Utah) or male rats Sprague–Dawley (Charles River) were used. All animals were housed, fed, and handled in a manner consistent with the recommendations in the National Council Publication, ‘Guide for the Care and Use of Laboratory animals’ [51]. The tested compound was suspended in 0.5% methylcellulose.
The tested compound was administered i.p. or p.o. at certain dose. Then, subcutaneous injection of metrazol (syn. pentetrazol, pentylenepentetrazol) dissolved in 0.9% NaCl at the dose of 85 mg/kg (mice) or 70 mg/kg (rats) was performed to induce seizures. Protection was scored if there was not an observed episode of clonic spasm of at least 5 sec.

[3] = test system: mice; test: Maximal electroshock test (MES), mice; type: in vivo; details: for ED50: Mus musculus, 95% confidence interval in parentheses
Method: as §1
After intraperitoneal or oral administration of compound KM-568 at certain dose, an alternating current at 60 Hz and 50 mA (mice) or 150 mA (rats) was delivered for 0.2 sec via corneal electrodes to induce seizures. Prior to each stimulation, a drop of 0.5% tetracaine hydrochloride in saline was applied to cornea. Protection was defined as the abolition of the hindlimb tonic extension of the seizures.

[4] = test system: HepG2 cells; test: LDH cytotoxicity assay, HepG2; type: cell-based, human; details: HepG2, up to 100 µM, 24 h
Method: Human liver cancer HepG2 cell line (ATCC HB8065) and rat cardiomyoblast cell line H9c2 (ATCC-CRL1446) were purchased in ATCC (American Type Culture Collection, Manassas, VA, USA). The cells were cultured in standard conditions (37 °C, 5% CO2) in EMEM medium (ATCC, Manassas, VA, USA), supplemented with 10% FBS (Gibco, Waltham, MA, USA) and antibiotics (1% streptomycin/penicillin mixture, Sigma–Aldrich, Darmstadt, Germany) or DMEM high glucose (ATCC, Manassas, VA, USA) supplemented with 10% FBS (Gibco, Waltham, MA, USA) and antibiotics (1% streptomycin/penicillin mixture, Sigma–Aldrich, Darmstadt, Germany), respectively.
Cells were seeded at density 5 × 10^4 cells/per well. After 24 h, KM-568 and reference standard DOX were added to final concentrations of 0.1; 0.5; 1.0; 10; 25; 50; 100; 200 µM. After 24 h incubation, plates were centrifuged (400 g, 2 min) and 50 μL of the supernatant was transferred into the corresponding 96-well plate. […] Next, stop solution was added and absorbance was measured at 490 nm on a multi-well plate reader (Spectra Max iD3, Molecular Devices, San Jose, CA, USA). Cytotoxicity was determined as follows: cytotoxicity (%)=[(compound LDH activity – spontaneous LDH activity)/(maximum LDH activity – spontaneous LDH activity)] × 100. […]

[5] = test system: rat cerebral cortex GABA receptor; test: GABA receptor radioligand binding ([3H]GABA); details: 10 µM; non-selective agonist radioligand
Method: In order to identify molecular mechanism of action, KM-568 was tested at 10 µM in three radioligand binding assays: rat cerebral cortex GABA receptor non-selective agonist radioligand, AMPA (α-amino-3-hydroxy-5-methyl-4-isoxazolepropionic acid) receptor agonist radioligand, and NMDA (N-methyl-D-aspartate) receptor antagonist radioligand as well as one functional assay involving a human recombinant TRPV1 receptor expressed in CHO cells (agonist and antagonist effects).
Tests were performed by Eurofins Cerep (Eurofins CEREP SA, Celle-Lévescault, France) as a commercial service. In radioligand assays, rat cerebral cortex GABA receptor as well as rat cerebral cortex AMPA (α-amino-3-hydroxy-5-methyl-4-isoxazolepropionic acid) and NMDA (N-methyl-D-aspartate) receptors with 10 nM [^3H]GABA, 8 nM [^3H]AMPA, and 5 nM [^3H]CGP39653, respectively, were used. The results were detected by means of scintillation counting. In functional assays, a human recombinant TRPV1 receptor expressed in Chinese hamster ovary (CHO) cells with 1 µM capsaicin or 30 nM capsazepine were used. Fluorimetry was used as a detection method.

Structure (SMILES): C[C@H](O)CNC(=O)/C=C/c1ccccc1 [KM-568, S(+)-(2E)-N-(2-hydroxypropyl)-3-phenylprop-2-enamide]
- ED50 ([1]; Mus musculus, ip, mice, 0.5 h (table title)): 79.2 mg/kg
- Average Seizure Score ([1]; 57 mg/kg): 4.0
- Results (protected/tested animals) ([1]; 57 mg/kg): 1/8
- Average Seizure Score ([1]; 84 mg/kg): 3.625
- Results (protected/tested animals) ([1]; 84 mg/kg): 5/8
- Average Seizure Score ([1]; 115 mg/kg): 0.625
- Results (protected/tested animals) ([1]; 115 mg/kg): 7/8
- ED50 ([2]; ip, 0.25 h): 104 mg/kg
- ED50 ([2]; po, 0.5 h): 107 mg/kg
- scMET Results (protected/tested animals) ([2]; i.p., 70 mg/kg, 0.25 h): 2/8
- scMET Results (protected/tested animals) ([2]; i.p., 100 mg/kg, 0.25 h): 3/8
- scMET Results (protected/tested animals) ([2]; i.p., 138 mg/kg, 0.25 h): 5/8
- scMET Results (protected/tested animals) ([2]; i.p., 170 mg/kg, 0.25 h): 8/8
- scMET Results (protected/tested animals) ([2]; p.o., 50 mg/kg, 0.5 h): 1/8
- scMET Results (protected/tested animals) ([2]; p.o., 100 mg/kg, 0.5 h): 4/8
- scMET Results (protected/tested animals) ([2]; p.o., 150 mg/kg, 0.5 h): 4/8
- scMET Results (protected/tested animals) ([2]; p.o., 200 mg/kg, 0.5 h): 8/8
- ED50 ([3]; ip, 0.25 h): 44.5 mg/kg
- ED50 ([3]; po, 0.5 h): 86.6 mg/kg
- MES Results (protected/tested animals) ([3]; i.p., 25 mg/kg, 0.25 h): 0/8
- MES Results (protected/tested animals) ([3]; i.p., 38 mg/kg, 0.25 h): 1/8
- MES Results (protected/tested animals) ([3]; i.p., 41 mg/kg, 0.25 h): 0/8
- MES Results (protected/tested animals) ([3]; i.p., 42 mg/kg, 0.25 h): 2/8
- MES Results (protected/tested animals) ([3]; i.p., 44 mg/kg, 0.25 h): 5/8
- MES Results (protected/tested animals) ([3]; i.p., 50 mg/kg, 0.25 h): 7/8
- MES Results (protected/tested animals) ([3]; p.o., 50 mg/kg, 0.5 h): 0/8
- MES Results (protected/tested animals) ([3]; p.o., 60 mg/kg, 0.5 h): 2/8
- MES Results (protected/tested animals) ([3]; p.o., 70 mg/kg, 0.5 h): 2/8
- MES Results (protected/tested animals) ([3]; p.o., 90 mg/kg, 0.5 h): 3/8
- MES Results (protected/tested animals) ([3]; p.o., 120 mg/kg, 0.5 h): 7/8
- MES Results (protected/tested animals) ([3]; p.o., 150 mg/kg, 0.5 h): 8/8
- cytotoxic effect, LDH assay [4]: no cytotoxic effect
- Effect in GABA receptor radioligand binding assay [5]: No significant effects
